# According to patent US4745124A, “Orally effective anti-hypertensive agents” (priority 1983, dated 1988):
# Columns and labels:
# [1] = oral; most patients; cited from earlier work
# [2] = tested on: ACE from guinea pig or human urine; assay: inhibition of ACE prepared from guinea pig or human urine, [3H]-HipGlyGly substrate; format: biochemical; conditions: SQ 14,225 at 0.1 μM
# Description: B. In certain experiments, as identified, an alternative assay system was employed using [^3 H]-HipGlyGly as substrate as described by Ryan, J. W., et al., Biochem. J. 167 501 (1977).
# Fresh urine was ultrafiltered using a membrane (PTGC 142 05, Millipore Corp., Bedford, MA, U.S.A.) with a 10,000 MW retention limit. Typically, 500 ml of urine was ultrafiltered to approx. 15 ml and then the concentrated proteins were washed with water and then applied to a column (2.5×110 cm) of Sephacryl S-200, Trademark, Pharmacia Chemical Co., Uppsala, Sweden, previously equilibrated with 0.05M TrisHCl buffer, pH 8.0, with 0.5M NaCl. Under these conditions, ACE was eluted in two peaks; one, the major peak, was eluted just after the void volume (Ve /Vo =1.21) and the second (up to 20% of the total activity) at Ve /Vo =1.41. Enzyme activity was measured using [^3 H]-HipGlyGly as described in Example 1B. […] The activities were inhibited to a maximum of 84% by antibody to guinea pig lung ACE. The enzyme used herein was that of the first peak to emerge from the Sepacryl column. The enzyme preparation was concentrated about 10-fold by ultrafiltration. In one such experiment, the concentrated urinary protein solution obtained by ultrafiltration contained 2,400 m units of enzyme at 8.0 m units/mg of protein, and peak 1 from the Sephacryl column contained 1,100 m units at 814 m units/mg of protein. […]
# [3] = stability of aqueous solution of SQ 14225 on standing; format: physicochemical; conditions: 1 mg per ml, pH about 8, as little as 30 minutes
smiles,measurement,setting,value
"C[C@H](CS)C(=O)N1CCCC1C(=O)O (stereo in doubt) [SQ 14225, D-3-mercapto-2-methylpropanoyl-L-proline]",stability in normal gastric and intestinal environments,[1],sufficiently stable
same,inhibition of activities of both ACE peaks,[2],inhibited completely
same,activity of aqueous solution on standing,[3],substantially less active
